Experimental data published in US20250313572A1, “MACROCYCLIC MCL-1 INHIBITORS AND METHODS OF USE” (AbbVie Inc., priority 2017, published 2025).
Where two headings read alike, the source gives them in different places.

Tests used:
GST-MCL-1 = GST-MCL-1 (Homo sapiens, UniProt Q07820); experiment: TR-FRET MCL-1 binding assay (competition with probe F-Bak)
In short: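 Displacement of F-Bak from GST-MCL-1 is detected by time-resolved FRET with a Tb-labelled anti-GST antibody, with excitation 340/35 nm and emission 520/525 and 495/510 nm, after 2 hours at room temperature. Compounds were titrated in 11 three-fold steps starting at 25 μM final, in buffer alone or in 10% HS.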

[1] = system: AMO-1 human multiple myeloma tumor cell line; experiment: AMO-1 cell viability assay (CellTiter-Glo, 24 hours); assay type: cell-based
[2] = system: NCI-H929 human multiple myeloma tumor cell line; experiment: NCI-H929 cell viability assay (CellTiter-Glo, 24 hours); assay type: cell-based
[3] = MCL-1 Binding Ki (nM, 10% HS), in the presence of 10% HS (human serum)
[4] = without HS, read-out: MCL-1 Binding Ki
[5] = Homo sapiens, AMO1, 24 h, read-out: AMO-1 Viability IC50 (μM, 10% FBS), 10% FBS, 24 hours of compound treatment
[6] = Homo sapiens, NCI-H929, 24 h, read-out: H929 Viability IC50 (μM, 10% FBS), 10% FBS, 24 hours of compound treatment

Chain of GST-MCL-1 (Q07820 whole entry): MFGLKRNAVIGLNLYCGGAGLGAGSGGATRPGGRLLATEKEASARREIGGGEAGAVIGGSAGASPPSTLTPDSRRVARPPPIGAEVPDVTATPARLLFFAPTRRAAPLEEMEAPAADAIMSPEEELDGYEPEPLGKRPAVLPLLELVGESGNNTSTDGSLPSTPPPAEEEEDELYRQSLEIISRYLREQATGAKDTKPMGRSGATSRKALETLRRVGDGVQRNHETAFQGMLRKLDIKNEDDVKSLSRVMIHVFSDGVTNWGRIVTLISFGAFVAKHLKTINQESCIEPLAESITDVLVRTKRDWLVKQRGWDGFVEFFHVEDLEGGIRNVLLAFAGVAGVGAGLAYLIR

In the case of `COCCOCCN(CCOCCOC)c1nccc(COc2ccc3cc2C[C@H](C(=O)O)Oc2ncnc4sc(-c5ccc(F)cc5)c(c24)-c2c(C)c(Cl)c(c(Cl)c2C)O[C@H](CN2CCN(C)CC2)CO3)n1` [Example 108, (7R,16R)-10-[(2-{bis[2-(2-methoxyethoxy)ethyl]amino}pyrimidin-4-yl)methoxy]-19,23-dichloro-1-(4-fluorophenyl)-20,22-dimethyl-16-[(4-methylpiperazin-1-yl)methyl]-7,8,15,16-tetrahydro-18,21-etheno-13,9-(metheno)-6,14,17-trioxa-2-thia-3,5-diazacyclononadeca[1,2,3-cd]indene-7-carboxylic Acid], the Ki (GST-MCL-1; [3]) is reported as 6.62 nM, the Ki (GST-MCL-1; [4]) is reported as 1.08 nM and the IC50 [1, 5] is reported as 0.00343 µM. The IC50 [2, 6] was 0.00417 µM.

With `COCCOCCOc1cc(COc2ccc3cc2C[C@H](C(=O)O)Oc2ncnc4sc(-c5ccc(F)cc5)c(c24)-c2c(C)c(Cl)c(c(Cl)c2C)O[C@H](CN2CCN(C)CC2)CO3)nc(-c2ccccc2OC)n1` [Example 169, (7R,16R)-19,23-dichloro-1-(4-fluorophenyl)-10-({6-[2-(2-methoxyethoxy)ethoxy]-2-(2-methoxyphenyl)pyrimidin-4-yl}methoxy)-20,22-dimethyl-16-[(4-methylpiperazin-1-yl)methyl]-7,8,15,16-tetrahydro-18,21-etheno-13,9-(metheno)-6,14,17-trioxa-2-thia-3,5-diazacyclononadeca[1,2,3-cd]indene-7-carboxylic Acid] the Ki (GST-MCL-1; [3]) was 0.631 nM, the Ki (GST-MCL-1; [4]) was 0.03 nM and the IC50 [1, 5] was 0.000306 µM. For the same molecule, the IC50 [2, 6] was 0.00115 µM.

Molecule `COCCOCCOCCOCCOCCOCC1(c2nccc(COc3ccc4cc3C[C@H](C(=O)O)Oc3ncnc5sc(-c6ccc(F)cc6)c(c35)-c3c(C)c(Cl)c(c(Cl)c3C)O[C@H](CN3CCN(C)CC3)CO4)n2)CCCCC1` [Example 88, (7R,16R)-19,23-dichloro-1-(4-fluorophenyl)-10-({2-[1-(2,5,8,11,14,17-hexaoxaoctadecan-1-yl)cyclohexyl]pyrimidin-4-yl}methoxy)-20,22-dimethyl-16-[(4-methylpiperazin-1-yl)methyl]-7,8,15,16-tetrahydro-18,21-etheno-13,9-(metheno)-6,14,17-trioxa-2-thia-3,5-diazacyclononadeca[1,2,3-cd]indene-7-carboxylic Acid] has a Ki (GST-MCL-1; [3]) of 0.143 nM, a Ki (GST-MCL-1; [4]) of 0.033 nM and an IC50 [1, 5] of 0.00117 µM. For the same molecule, the IC50 [2, 6] was 0.00206 µM.

`COCCOCCOCCOCCOCC1(F)CC=C(c2nccc(COc3ccc4cc3C[C@H](C(=O)O)Oc3ncnc5sc(-c6ccc(F)cc6)c(c35)-c3c(C)c(Cl)c(c(Cl)c3C)O[C@H](CN3CCN(C)CC3)CO4)n2)CC1` (single isomer, unassigned) [Example 106, (7R,16R)-19,23-dichloro-10-({2-[(4R*)-4-fluoro-4-(2,5,8,11,14-pentaoxapentadecan-1-yl)cyclohex-1-en-1-yl]pyrimidin-4-yl}methoxy)-1-(4-fluorophenyl)-20,22-dimethyl-16-[(4-methylpiperazin-1-yl)methyl]-7,8,15,16-tetrahydro-18,21-etheno-13,9-(metheno)-6,14,17-trioxa-2-thia-3,5-diazacyclononadeca[1,2,3-cd]indene-7-carboxylic Acid] showed a Ki (GST-MCL-1; [3]) of 0.166 nM, a Ki (GST-MCL-1; [4]) of 0.036 nM and an IC50 [1, 5] of 0.000216 µM. For the same molecule, the IC50 [2, 6] was 0.000288 µM.

With `COC[C@H](COc1ccc(-c2nccc(COc3ccc4cc3C[C@H](C(=O)O)Oc3ncnc5sc(-c6ccc(F)cc6)c(c35)-c3c(C)c(Cl)c(c(Cl)c3C)O[C@H](CN3CCN(C)CC3)CO4)n2)cc1)OC` [Example 137, (7R,16R)-19,23-dichloro-10-[(2-{4-[(2R)-2,3-dimethoxypropoxy]phenyl}pyrimidin-4-yl)methoxy]-1-(4-fluorophenyl)-20,22-dimethyl-16-[(4-methylpiperazin-1-yl)methyl]-7,8,15,16-tetrahydro-18,21-etheno-9,13-(metheno)-6,14,17-trioxa-2-thia-3,5-diazacyclononadeca[1,2,3-cd]indene-7-carboxylic acid] the Ki (GST-MCL-1; [3]) was 0.999 nM, the Ki (GST-MCL-1; [4]) was 0.031 nM and the IC50 [1, 5] was 0.000394 µM. It also gave an IC50 [2, 6] of 0.000286 µM.

For `Cc1c(Cl)c2c(Cl)c(C)c1-c1c(-c3ccc(F)cc3)sc3ncnc(c13)O[C@@H](C(=O)O)Cc1cc(ccc1OCc1ccnc(C3=CCC(CC(=O)O)CC3)n1)OC[C@@H](CN1CCN(C)CC1)O2` (single isomer, unassigned) [Example 37, (7R,16R)-10-({2-[(4R*)-4-(carboxymethyl)cyclohex-1-en-1-yl]pyrimidin-4-yl}methoxy)-19,23-dichloro-1-(4-fluorophenyl)-20,22-dimethyl-16-[(4-methylpiperazin-1-yl)methyl]-7,8,15,16-tetrahydro-18,21-etheno-13,9-(metheno)-6,14,17-trioxa-2-thia-3,5-diazacyclononadeca[1,2,3-cd]indene-7-carboxylic Acid], the Ki (GST-MCL-1; [3]) was 0.124 nM, the Ki (GST-MCL-1; [4]) was 0.009 nM and the IC50 ([1]; read-out: AMO-1 Viability IC50 (μM, 10% FBS), 10% FBS, 24 hours of compound treatment) was 0.0096 µM. It also gave an IC50 ([2]; read-out: H929 Viability IC50 (μM, 10% FBS), 10% FBS, 24 hours of compound treatment) of 0.0167 µM.

`Cc1c(Cl)c2c(Cl)c(C)c1-c1c(-c3ccc(F)cc3)sc3ncnc(c13)O[C@@H](C(=O)O)Cc1cc(ccc1OCc1ccnc(N3CCP(C)(=O)CC3)n1)OC[C@@H](CN1CCN(C)CC1)O2` [Example 25, (7R,16R)-19,23-dichloro-1-(4-fluorophenyl)-20,22-dimethyl-10-{[2-(4-methyl-4-oxo-1,4λ^5-azaphosphinan-1-yl)pyrimidin-4-yl]methoxy}-16-[(4-methylpiperazin-1-yl)methyl]-7,8,15,16-tetrahydro-18,21-etheno-13,9-(metheno)-6,14,17-trioxa-2-thia-3,5-diazacyclononadeca[1,2,3-cd]indene-7-carboxylic Acid] showed a Ki (GST-MCL-1; [3]) of 5.7 nM, a Ki (GST-MCL-1; [4]) of 0.844 nM and an IC50 [1, 5] of 0.0727 µM. It also gave an IC50 [2, 6] of 0.0808 µM.

`COCCOCCOCCOCc1ccc(-c2nccc(COc3ccc4cc3C[C@H](C(=O)O)Oc3ncnc5sc(-c6ccc(F)cc6)c(c35)-c3c(C)c(Cl)c(c(Cl)c3C)O[C@H](CN3CCN(C)CC3)CO4)n2)cc1COCCOCCOCCOC` [Example 152, (7R,16R)-10-({2-[3,4-bis(2,5,8,11-tetraoxadodecan-1-yl)phenyl]pyrimidin-4-yl}methoxy)-19,23-dichloro-1-(4-fluorophenyl)-20,22-dimethyl-16-[(4-methylpiperazin-1-yl)methyl]-7,8,15,16-tetrahydro-18,21-etheno-13,9-(metheno)-6,14,17-trioxa-2-thia-3,5-diazacyclononadeca[1,2,3-cd]indene-7-carboxylic Acid] showed a Ki (GST-MCL-1; [3]) of 0.041 nM, a Ki (GST-MCL-1; [4]) of 0.011 nM and an IC50 [1, 5] of 0.00732 µM. It also gave an IC50 [2, 6] of 0.00593 µM.

`Cc1c(Cl)c2c(Cl)c(C)c1-c1c(-c3ccc(F)cc3)sc3ncnc(c13)O[C@@H](C(=O)O)Cc1cc(ccc1OCc1ccnc(-c3ccc(OC[C@H]4COCCN4C)cc3)n1)OC[C@@H](CN1CCN(C)CC1)O2` [Example 163, (7R,16R)-19,23-dichloro-1-(4-fluorophenyl)-20,22-dimethyl-10-{[2-(4-{[(3R)-4-methylmorpholin-3-yl]methoxy}phenyl)pyrimidin-4-yl]methoxy}-16-[(4-methylpiperazin-1-yl)methyl]-7,8,15,16-tetrahydro-18,21-etheno-9,13-(metheno)-6,14,17-trioxa-2-thia-3,5-diazacyclononadeca[1,2,3-cd]indene-7-carboxylic Acid] showed a Ki (GST-MCL-1; [3]) of 0.285 nM, a Ki (GST-MCL-1; [4]) of 0.013 nM and an IC50 [1, 5] of 0.000399 µM. For the same molecule, the IC50 [2, 6] was 0.00134 µM.
